Columns and labels:
Klebsiella pneumoniae = test: paper disc-plate method, combination with SF-1130-x1 substance; format: cell-based; settings: in combination with SF-1130-x1, Klebsiella pneumoniae
test microorganism = test: paper disc-plate method, test microorganisms in general; format: cell-based; settings: for effect on antibacterial activity of the SF-1130-x2 substance: 1.25 mg/cc in upper plate layer, with SF-1130-x2; for antibacterial activity in themselves: alone, under the Table 4 testing conditions; for effect on antibacterial activity of the SF-1130-x1 substance: in combination with SF-1130-x1; for effect on antibacterial activity of the SF-1130-x substance: with SF-1130-x substance
Protocol: The test was conducted by a conventional paper disc-plate method. Thus, the SF-1130-x2 substance was dissolved in distilled water at a concentration of 1 mg/cc or 2 mg/cc, and with the test solutions so prepared were impregnated paper discs made of filter paper 8 mm in diameter which were subsequently air-dried. These paper discs were placed on an upper plate layer of the known mycin-assay incubation medium comprising 0.5% peptone, 0.3% meat extract and 1.5% agar (pH 6) which contained the test microorganism to be incubated therein and which was laid over the lower layer of agar medium in the assaying dish. The incubation was made at a temperature of 37° C. overnight, and subsequently the diameters of the inhibition zones formed around the paper discs were measured. These tests were repeated in the same manner as above but with the additional incorporation of 1.25 mg/cc of maltopentaose or maltohexaose into the upper plate layer of the micin-assay incubation medium. […] Control testing was also conducted in which the antibacterial potency of the SF-1130-x2 substance alone was estimated in the absence of maltopentaose or maltohexaose.

[1] = in vitro antimicrobial / antibacterial activity (general statement); format: cell-based; settings: for in vitro antimicrobial activity: in themselves
[2] = tested on: mice infected with ascites tumor of "Sarcoma 180"; test: cellular immunity test according to the delayed skin reaction technique; format: in vivo, ICR-JCL mice (male); settings: for adjuvant effect on immuno-potentiating activity of SF-1130-x substance: with SF-1130-x substance
Protocol: The test was carried out by the following procedure: A group of ICR-JCL mice (male) having an average body weight of 31.58±4g (8 weeks old) (six mice per group) were inoculated with ascites tumor of "Sarcoma 180". 24 hours after the inoculation of the tumor cells, each of the drug samples to be tested was subcutaneously administered once into the mice. Two days after the inoculation an ethanolic solution of 5% picryl chloride was applied to the hair-shaved abdomens of mice to establish the sensitization. Subsequently, each drug sample under test was subcutaneously administered once a day for four successive days. Nine days after the inoculation, a solution of 1% picryl chloride in olive oil was applied to the two sides of both ears of mice to establish the secondary sensitization. 24 hours after the secondary sensitization, the degree (%) of increase in thickness of the ears was evaluated for the test mice. The extent of the delayed skin reaction can be assessed from the percentage increase.

[3] = tested on: Staphylococcus aureus Smith S-424; test: host-defense stimulation in JCL-ICR mice against bacterial infection (survival, LD50 of bacteria); format: in vivo; settings: living animals
Protocol: The test was conducted as follows: The crude, yellowish brown powder obtained in Example 1 was reprecipitated from water-ethanol and the reprecipitate was dissolved in a phosphate-buffered saline at ph 7.2. The resultant solution containing a mixture of maltopentaose and maltohexaose was intraperitoneally administered into a group of JCL-ICR mice (male) having an average body weight of 20g (4 weeks old) (eight mice per group) at a dosage of 100 mg/kg body or 20 mg/kg body. The administration was effected three times at an interval of 48 hours.
72 hours after the final administration, the mice were intraperitoneally inoculated with 0.5 ml/mouse of a cell dispersion of Staphylococcus aureus Smith S-424 strain which had been prepared by dilution of the incubated culture with physiological saline solution followed by addition of 5% mucin. The number of the mice that survived was counted during five days after the inoculation and the LD50 value of the bacterial cells (the number of the bacterial cells necessary to kill 50% of mice) calculated in each case. Control testing was also conducted where the treatment with the mixture of maltopentaose and maltohexaose was omitted.

solubility = format: physicochemical

Row | Structure (SMILES) | effect on antibacterial activity of the SF-1130-x1 substance (Klebsiella pneumoniae) | effect on antibacterial activity of the SF-1130-x2 substance (test microorganism) | antibacterial activity in themselves (test microorganism) | effect on antibacterial activity of the SF-1130-x1 substance (test microorganism) | effect on antibacterial activity of the SF-1130-x substance (test microorganism) | in vitro antibacterial activity [1] | in vitro antimicrobial activity [1] | Degree of increase in thickness (ears) ([2]; 200 mg/kg body, subcutaneous) | Percentage increase ([2]; 200 mg/kg body, subcutaneous, Control = 100.0) | adjuvant effect on immuno-potentiating activity of SF-1130-x substance [2] | effect on host-defense system against bacterial infection [3] | solubility in acetone (solubility) | solubility in ethanol (solubility) | solubility in water (solubility)
1 | OC[C@H]1O[C@H](O[C@H]2[C@H](O)[C@@H](O)[C@@H](O[C@H]3[C@H](O)[C@@H](O)[C@@H](O[C@H]4[C@H](O)[C@@H](O)[C@@H](O[C@H]5[C@H](O)[C@@H](O)[C@@H](O[C@H]6[C@H](O)[C@@H](O)C(O)O[C@@H]6CO)O[C@@H]5CO)O[C@@H]4CO)O[C@@H]3CO)O[C@@H]2CO)[C@H](O)[C@@H](O)[C@@H]1O (some centres unmarked) [maltohexaose] | improvement in the antibacterial activity is not observed | improves the antibacterial activity | no antibacterial activity | generally improves the antibacterial activity | improving the antibacterial activity | no in vitro antibacterial activity | no in vitro antimicrobial activity | 4.7 ± 0.988 ×10^ -3 cm | 87.0% | adjuvant effect of increasing the immuno-potentiating activity | may stimulate the host-defense system | insoluble | insoluble | readily soluble
2 | OC[C@H]1O[C@H](O[C@H]2[C@H](O)[C@@H](O)[C@@H](O[C@H]3[C@H](O)[C@@H](O)[C@@H](O[C@H]4[C@H](O)[C@@H](O)[C@@H](O[C@H]5[C@H](O)[C@@H](O)C(O)O[C@@H]5CO)O[C@@H]4CO)O[C@@H]3CO)O[C@@H]2CO)[C@H](O)[C@@H](O)[C@@H]1O (some centres unmarked) [maltopentaose] | improvement in the antibacterial activity is not observed | improves the antibacterial activity | no antibacterial activity | generally improves the antibacterial activity | improving the antibacterial activity | no in vitro antibacterial activity | no in vitro antimicrobial activity | – | – | adjuvant effect of increasing the immuno-potentiating activity | may stimulate the host-defense system | insoluble | insoluble | readily soluble

— US4151041A, “Process for production of maltopentaose and maltohexaose” (Meiji Seika Kaisha, Ltd., priority 1976, dated 1979)
